# Source: US20230346670A1, “Prebiotic Oral Care Compositions and Methods” (Colgate-Palmolive Company, priority 2020, published 2023)
# Marks after values point to notes of the source that are not given here.
# Key:
# Format in all cases: cell-based
# [1] = system: A. actinomycetemcomitans virulence genes; assay: Virulence gene expression in multi-species biofilm (SYBR RT-qPCR)
# Experimental: (§1) Biofilms are grown vertically on Calcium Deficient Hydroxyapatite (CAD-HA) disks (Hitemco Medical, Old Bethpage, USA) using the Amsterdam Active Adhesion model. Biofilms are allowed to establish during 24 h (37° C., 170 rpm) under microaerophilic conditions (6% O2, 7% CO2, 7% H2, 80% N2). After this 24 h, disks are rinsed 3 times a day for 3 minutes (RT, 250 rpm), for 3 consecutive days, by transferring the lid containing the disks to a new 24-well plate containing 2 mL/well of the appropriate substrate solution. As a negative control, PBS (pH 5.7) without substrate supplementation is used.
# (§2) The virulence of the substrate-treated multi-species biofilms are evaluated by analyzing the relative expression of 33 genes that are recognized as being related to some form of virulence and from 4 periodontal pathogens.
# (§3) Expression of bacterial virulence genes is analyzed through SYBR RT-qPCR and normalized for bacterial housekeeping gene expression. […] These effects are illustrated in Tables 6a and 6b:
# (§4) Note, for Tables 6a and 6b, that fold changes in virulence gene expression are determined relative to the control condition through the 2^^-ΔΔCt method and are shown as the geometric mean (C.I.) (n = 3) of the 2^^-ΔΔ ^Ct values. All substrates are dissolved in PBS at a concentration of 1 M (upper part) or 1%(w/v) (lower part). Values between 0 and 1 represent relative downregulation, values >1 represent relative upregulation. […] NADG: N-acetyl-D-glucosamine; C.I.: 95% confidence interval.
# [2] = system: P. gingivalis virulence genes; assay: as above; conditions: relative to control, 2^-ΔΔCt, n = 3
# Experimental: as §1, §2, §3, §4
# multi-species biofilms = assay: Organic acid levels in supernatant of multi-species biofilms (ion chromatography); conditions: >0 production, <0 consumption, n = 3
# Experimental: as §1
# Levels of organic acids in the filter sterilized supernatant of the multi-species biofilms are measured using a 761 Compact Ion Chromatograph (Metrhohm, Switzerland) with a Metrosep Organic acids Guard/4.6 guard column. The supernatants from the substrate-treated multi-species biofilms are analyzed to gain more insight into the influence of the substrates on organic acid consumption/production.
# [3] = system: F. nucleatum virulence genes; assay: Virulence gene expression in multi-species biofilm (SYBR RT-qPCR); conditions: relative to control = 1, 2^-ΔΔCt, n = 3
# Experimental: as §1, §2, §3
# as §4, with “Table 6c,” for “Tables 6a and 6b, that”, “2^^-ΔΔCt” for “2^^-ΔΔ ^Ct”
# A. viscosus = assay: Multi-species biofilm composition, absolute abundance (Geq/mL); conditions: for absolute abundance of A. viscosus (Av), mean ± SD log (Geq/mL): repeated rinsing
# Experimental: as §1
# (§5) N-acetyl-D-glucosamine (NADG), α-D-lactose, D-(+)-trehalose and D-(+)-raffinose are selected to determine their effects on multi-species biofilm composition. […] decrease in absolute numbers in at least four of the pathogenic bacterial species tested in the assay, in comparison to the control, the results of which are described in Table 1 below. Note, NADG decreased absolute numbers of S. sobrinus. Absolute abundances of bacterial species are shown as mean ± SD (n = 3) logarithmic values of the genome equivalents per millilitre (log(Geq/mL)).
# S. sanguinis = assay: as above; conditions: repeated rinsing
# Experimental: as §1, §5
# F. nucleatum = assay: as above; conditions: repeated rinsing
# Experimental: as §1, §5
# V. parvula = assay: as above; conditions: for absolute abundance of V. parvula (VP), mean ± SD log (Geq/mL): repeated rinsing
# Experimental: as §1, §5
# S. salivarius = assay: as above; conditions: repeated rinsing
# Experimental: as §1, §5
# S. mutans = assay: as above; conditions: repeated rinsing
# Experimental: as §1, §5
# [4] = lower part of Table 6a, substrate 1%(w/v), relative to control = 1
# [5] = substrate 1 M, relative to control = 1, 2^-ΔΔCt, n = 3
# [6] = substrate 1 M, listed as D-(+)-trehalose
structure (smiles),measurement,setting,value
"OC[C@H]1O[C@H](O[C@H]2O[C@H](CO)[C@@H](O)[C@H](O)[C@H]2O)[C@H](O)[C@@H](O)[C@@H]1O [D-trehalose, D-(+)-trehalose]","fold change in aae expression, geometric mean (95% C.I.)",[1]; [4],0.95 (0.33-2.78) fold
same,"fold change in apaH expression, geometric mean (95% C.I.)",[1]; [4],0.64 (0.37-1.10) fold
same,"fold change in cdtB expression, geometric mean (95% C.I.)",[1]; [4],0.67 (0.51-0.89) fold
same,"fold change in emaA expression, geometric mean (95% C.I.)",[1]; [4],0.67 (0.49-0.90) fold
same,"fold change in flp expression, geometric mean (95% C.I.)",[1]; [4],0.48 (0.07-3.50) fold
same,"fold change in ltxA expression, geometric mean (95% C.I.)",[1]; [4],0.08 (0.01-0.73)^∗ fold
same,"fold change in omp29 expression, geometric mean (95% C.I.)",[1]; [4],0.51 (0.19-1.34)^∗ fold
same,"fold change in omp100 expression, geometric mean (95% C.I.)",[1]; [4],0.43 (0.26-0.72)^∗ fold
same,"fold change in orf859 expression, geometric mean (95% C.I.)",[1]; [4],1.04 (0.53-2.03) fold
same,"fold change in pgA expression, geometric mean (95% C.I.)",[1]; [4],0.91 (0.81-1.03) fold
same,"fold change in vapA expression, geometric mean (95% C.I.)",[1]; [4],1.02 (0.87-1.21) fold
same,"fold change in vppA expression, geometric mean (95% C.I.)",[1]; [4],0.48 (0.42-0.55)^∗ fold
same,"fold change in aae expression, geometric mean (95% C.I.)",[1]; [5],0.03 (0.01-0.15)^∗ fold
same,"fold change in apaH expression, geometric mean (95% C.I.)",[1]; [5],0.16 (0.04-0.56)^∗ fold
same,"fold change in cdtB expression, geometric mean (95% C.I.)",[1]; [5],0.08 (0.03-0.21)^∗ fold
same,"fold change in emaA expression, geometric mean (95% C.I.)",[1]; [5],0.11 (0.04-0.32)^∗ fold
same,"fold change in flp expression, geometric mean (95% C.I.)",[1]; [5],0.71 (0.30-1.67) fold
same,"fold change in ltxA expression, geometric mean (95% C.I.)",[1]; [5],0.01 (0.00-0.01)^∗ fold
same,"fold change in omp29 expression, geometric mean (95% C.I.)",[1]; [5],0.74 (0.18-3.00) fold
same,"fold change in omp100 expression, geometric mean (95% C.I.)",[1]; [5],0.09 (0.01-1.11)^∗ fold
same,"fold change in orf859 expression, geometric mean (95% C.I.)",[1]; [5],0.14 (0.02-0.87)^∗ fold
same,"fold change in pgA expression, geometric mean (95% C.I.)",[1]; [5],18.24 (5.89-56.51)^∗ fold
same,"fold change in vapA expression, geometric mean (95% C.I.)",[1]; [5],0.32 (0.08-1.26)^∗ fold
same,"fold change in vppA expression, geometric mean (95% C.I.)",[1]; [5],0.32 (0.01-4.50)^∗ fold
same,"fold change in pgA expression, geometric mean (95% C.I.)","[1]; substrate 1 M, relative to control = 1, 2^-ΔΔCt, n = 3, listed as D-(+)-trehalose",18.2 fold
same,"fold change in fimA expression, geometric mean (95% C.I.)",[2]; substrate 1 % (w/v),1.58 (0.86-2.90) fold
same,"fold change in kgp expression, geometric mean (95% C.I.)",[2]; substrate 1 % (w/v),3.24 (1.63-6.44)^∗ fold
same,"fold change in partC expression, geometric mean (95% C.I.)",[2]; substrate 1 % (w/v),0.71 (0.37-1.35) fold
same,"fold change in rgpA expression, geometric mean (95% C.I.)",[2]; substrate 1 % (w/v),1.49 (0.69-3.22) fold
same,"fold change in kgp expression, geometric mean (95% C.I.)","[2]; substrate 1 % (w/v), listed as D-(+)-trehalose",approximately 3.2 fold
same,"fold change in fimA expression, geometric mean (95% C.I.)",[2]; substrate 1 M,0.13 (0.02-0.96)^∗ fold
same,"fold change in kgp expression, geometric mean (95% C.I.)",[2]; substrate 1 M,<LOD
same,"fold change in partC expression, geometric mean (95% C.I.)",[2]; substrate 1 M,0.03 (0.00-0.49)^∗ fold
same,"fold change in rgpA expression, geometric mean (95% C.I.)",[2]; substrate 1 M,0.00 (0.00-0.02)^∗ fold
same,"acetate level in biofilm supernatant, mean ± SD",multi-species biofilms; substrate 1% (w/v),303 ± 13 mg/L
same,"butyrate level in biofilm supernatant, mean ± SD",multi-species biofilms; substrate 1% (w/v),1945 ± 9 mg/L
same,"formate level in biofilm supernatant, mean ± SD",multi-species biofilms; substrate 1% (w/v),3691 ± 89 mg/L
same,"lactate level in biofilm supernatant, mean ± SD",multi-species biofilms; substrate 1% (w/v),-125 ± 0 mg/L
same,"propionate level in biofilm supernatant, mean ± SD",multi-species biofilms; substrate 1% (w/v),1962 ± 8 mg/L
same,"acetate level in biofilm supernatant, mean ± SD",multi-species biofilms; substrate 1 M,1021 ± 41^∗ mg/L
same,"butyrate level in biofilm supernatant, mean ± SD",multi-species biofilms; substrate 1 M,0±0^∗ mg/L
same,"formate level in biofilm supernatant, mean ± SD",multi-species biofilms; substrate 1 M,75 ± 8^∗ mg/L
same,"lactate level in biofilm supernatant, mean ± SD",multi-species biofilms; substrate 1 M,4187 ± 200^∗ mg/L
same,"propionate level in biofilm supernatant, mean ± SD",multi-species biofilms; substrate 1 M,1577 ± 46^∗ mg/L
same,"acetate level in biofilm supernatant, mean ± SD",multi-species biofilms; [6],1021 ± 73 mg/L
same,"butyrate level in biofilm supernatant, mean ± SD",multi-species biofilms; [6],0 ± 0 mg/L
same,"formate level in biofilm supernatant, mean ± SD",multi-species biofilms; [6],75 ± 8 mg/L
same,"lactate level in biofilm supernatant, mean ± SD",multi-species biofilms; [6],4187 ± 200 mg/L
same,"propionate level in biofilm supernatant, mean ± SD",multi-species biofilms; [6],1577 ± 46 mg/L
same,"fold change in ABC transp. perm. (ABC transporter permease) expression, geometric mean (95% C.I.)",[3]; substrate 1% (w/v),0.40 (0.15-1.03)^∗ fold
same,"fold change in EF-G expression, geometric mean (95% C.I.)",[3]; substrate 1% (w/v),0.12 (0.03-0.55)^∗ fold
same,"fold change in but. -coA transf. (butyrate-acetoacetate CoA-transferase) expression, geometric mean (95% C.I.)",[3]; substrate 1% (w/v),0.40 (0.05-3.27) fold
same,"fold change in hemin receptor expression, geometric mean (95% C.I.)",[3]; substrate 1% (w/v),0.16 (0.05-0.50)^∗ fold
same,"fold change in hemolysin expression, geometric mean (95% C.I.)",[3]; substrate 1% (w/v),0.65 (0.15-2.70) fold
same,"fold change in ompA expression, geometric mean (95% C.I.)",[3]; substrate 1% (w/v),0.84 (0.21-3.35) fold
same,"fold change in transposase expression, geometric mean (95% C.I.)",[3]; substrate 1% (w/v),1.02 (0.33-3.12) fold
same,"fold change in ABC transp. perm. (ABC transporter permease) expression, geometric mean (95% C.I.)",[3]; substrate 1 M,32.18 (21.08-49.14)^∗ fold
same,"fold change in EF-G expression, geometric mean (95% C.I.)",[3]; substrate 1 M,1.18 (0.46-3.02) fold
same,"fold change in but. -coA transf. (butyrate-acetoacetate CoA-transferase) expression, geometric mean (95% C.I.)",[3]; substrate 1 M,4.28 (1.32-13.86)* fold
same,"fold change in hemin receptor expression, geometric mean (95% C.I.)",[3]; substrate 1 M,41.19 (20.31-83.52)^∗ fold
same,"fold change in hemolysin expression, geometric mean (95% C.I.)",[3]; substrate 1 M,12.15 (7.73-19.10)^∗ fold
same,"fold change in ompA expression, geometric mean (95% C.I.)",[3]; substrate 1 M,1.23 (0.98-1.53) fold
same,"fold change in transposase expression, geometric mean (95% C.I.)",[3]; substrate 1 M,106.44 (42.35-267.50)^∗ fold
same,"absolute abundance of A. viscosus (Av), mean ± SD log (Geq/mL)",A. viscosus; substrate 1% (w/v),8.04 ± 0.28 log (Geq/mL)
same,decrease in A. viscosus numbers in comparison to the control,A. viscosus; substrate 1 M,1.9-2.5 log(Geq/mL)
same,"absolute abundance of A. viscosus (Av), mean ± SD log (Geq/mL)","A. viscosus; substrate 1 M in PBS, n = 3",6.05 ± 1.12^∗ log (Geq/mL)
same,"absolute abundance of S. sanguinis, mean ± SD log (Geq/mL)",S. sanguinis; substrate 1% (w/v),8.42 ± 0.43 log (Geq/mL)
same,"absolute abundance of S. sanguinis, mean ± SD log (Geq/mL)","S. sanguinis; substrate 1 M in PBS, n = 3",6.43 ± 0.97 log (Geq/mL)
same,"absolute abundance of F. nucleatum (Fn), mean ± SD log (Geq/mL)",F. nucleatum; substrate 1% (w/v),9.35 ± 0.20 log (Geq/mL)
same,"absolute abundance of F. nucleatum (Fn), mean ± SD log (Geq/mL)","F. nucleatum; substrate 1 M in PBS, n = 3",6.51 ± 0.43^∗ log (Geq/mL)
same,"absolute abundance of V. parvula (VP), mean ± SD log (Geq/mL)",V. parvula; substrate 1% (w/v),10.07 ± 0.28 log (Geq/mL)
same,reduction of V. parvula numbers in comparison to the control,V. parvula; substrate 1 M,~ 0.7 log(Geq/mL)
same,"absolute abundance of V. parvula (VP), mean ± SD log (Geq/mL)","V. parvula; substrate 1 M in PBS, n = 3",9.44 ± 0.25^∗ log (Geq/mL)
same,"absolute abundance of S. salivarius, mean ± SD log (Geq/mL)",S. salivarius; substrate 1% (w/v),2.65 ± 0.00 log (Geq/mL)
same,"absolute abundance of S. salivarius, mean ± SD log (Geq/mL)","S. salivarius; substrate 1 M in PBS, n = 3",6.19 ± 0.07^∗ log (Geq/mL)
same,"absolute abundance of S. mutans, mean ± SD log (Geq/mL)",S. mutans; substrate 1% (w/v),7.55 ± 0.25 log (Geq/mL)
same,"absolute abundance of S. mutans, mean ± SD log (Geq/mL)","S. mutans; substrate 1 M in PBS, n = 3",8.50 ± 0.29^∗ log (Geq/mL)
